Counter-ions that a name gives are not always drawn.
What was measured:
AGS cells = experiment: In vitro cell proliferation assay in AGS cell line; format: cell-based; details: Homo sapiens; for inhibition at 3 µM: TC1: Test Concentration of 3 uM; for inhibition at 10 µM: TC2: Test Concentration of 10 uM
Protocol: (§1) Test 1: In Vitro Cell Proliferation Assay in HPAC and AGS Cell Lines
(§2) Growth inhibition assays was carried out using 10% FBS supplemented media. Cells are to be seeded at a concentration of 2000-3,000 cells/well in a 96-well plate. Test compounds at a concentration range from 0.1 to 30 uM will be added after 24 hours. Growth will be assessed using the MTT or CCK-8 kit for measuring reduction at 0 h (prior to the addition of the test compound) and 72 to 96 hours after the addition of test compound. Absorbance read on a BIO-RAD iMark Microplate or any equivalent micloplate reader at a wavelength of 450 nm to 600 nm. Data will be analyzed and percent inhibition due to the test compound compared to the control is calculated accordingly.

HPAC cells = experiment: In vitro cell proliferation assay in HPAC cell line; format: cell-based; details: for inhibition at 3 µM / inhibition at 10 µM: Homo sapiens; for inhibition at 3 µM / % Inhibition of Cell Proliferation HPAC TC1: TC1: Test Concentration of 3 uM; for inhibition at 10 µM: TC2: Test Concentration of 10 uM; for % Inhibition of Cell Proliferation HPAC TC1: 3 µM
Protocol: as §1, §2

human KRAS G12D protein = biological target: T1, human KRAS G12D protein (Homo sapiens, UniProt P01116, G12D); experiment: HTRF-based nucleotide exchange assay detecting GTP binding to K-Ras; format: biochemical; details: human KRAS G12D (amino acid 2-169), SOS1 mediated exchange
T1 construct: A human KRAS G12D protein (corresponding to amino acid 2-169)
T1 sequence (P01116 2-169 isoform P01116-2 G12D): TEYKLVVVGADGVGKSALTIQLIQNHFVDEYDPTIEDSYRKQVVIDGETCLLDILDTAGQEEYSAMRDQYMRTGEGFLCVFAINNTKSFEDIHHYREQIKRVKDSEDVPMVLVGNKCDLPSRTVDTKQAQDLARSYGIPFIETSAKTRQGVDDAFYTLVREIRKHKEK
Protocol: Test 3: Nucleotide Exchange Assay HTRF-based nucleotide exchange assay detecting GTP binding to K-Ras A human KRAS G12D protein (corresponding to amino acid 2-169) was mixed with a a-GST Tb antibody (1.5× solution) and 10 uL of the solution was added to the reaction wells). Compounds (each 10 concentrations or any other concentration of choice at 3-fold or fold of choice for serial dilutions with a starting concentration of […] or or 100 μM or 50 uM) were then delivered to the reaction wells using acoustic dispenser (Echo, Labcyte) and incubated with the Kras/aGST-Tb antibody for 1-hour at room temperature. […] HTRF based SOS1 mediated exchange of GDP to GTP was measured on a microplate reader […] (BMG Labtech) at an excitation wavelength of 337 nm and emission wavelengths of 665 and 620 nm. No-SOS1 reaction or highest control compound concentration was used as blank and % inhibition was calculated and/or IC50 was determined using Sigmoidal dose response (variable slope) equation.

SMILES	inhibition at 3 µM (AGS cells) [%]	inhibition at 10 µM (AGS cells) [%]	inhibition at 3 µM (HPAC cells) [%]	inhibition at 10 µM (HPAC cells) [%]	also measured
CN1CCC[C@H]1COc1nc(N2[C@@H]3CC[C@H]2CN(C(=O)OC(C)(C)C)C3)c2c(c1C#N)CN(c1cc(O)cc3ccccc13)CC2 [Ex 4, tert-butyl (1R,5S)-8-(4-cyano-6-(3-hydroxynaphthalen-1-yl)-3-(((S)-1-methylpyrrolidin-2-yl)methoxy)-5,6,7,8-tetrahydro-2,6-naphthyridin-1-yl)-3,8-diazabicyclo[3.2.1]octane-3-carboxylate]	75 to 100	75 to 100	–	–	–
N#Cc1c(OCC2(CN3CCOCC3)CC2)nc(N2C[C@H]3CC[C@@H](C2)N3)c2c1CN(Cc1ccccc1)CC2 [Ex 24, 6-benzyl-1-((1R,5S)-3,8-diazabicyclo[3.2.1]octan-3-yl)-3-((1-(morpholinomethyl)cyclopropyl)methoxy)-5,6,7,8-tetrahydro-2,6-naphthyridine-4-carbonitrile Hydrochloride]	–	–	≤ 25	25 to 50	IC50 (human KRAS G12D protein): > 1000 nM
CN1CCC[C@H]1COc1nc(N2CC3CCC(C2)N3)c2c(c1C#N)CN(Cc1ccccc1)CC2 [Ex 18, 6-benzyl-1-(3,8-diazabicyclo[3.2.1]octan-3-yl)-3-(((S)-1-methylpyrrolidin-2-yl)methoxy)-5,6,7,8-tetrahydro-2,6-naphthyridine-4-carbonitrile Hydrochloride]	25 to 50	75 to 100	≤ 25	25 to 50	–
C#Cc1cccc2cccc(N3CCc4c(N5[C@@H]6CC[C@H]5CNC6)nc(OCC56CCCN5CCC6)c(C#N)c4C3)c12 [Ex 12, 1-((1R,5S)-3,8-diazabicyclo[3.2.1]octan-8-yl)-6-(8-ethynylnaphthalen-1-yl)-3-((tetrahydro-1H-pyrrolizin-7a(5H)-yl)methoxy)-5,6,7,8-tetrahydro-2,6-naphthyridine-4-carbonitrile Hydrochloride]	–	–	–	–	% Inhibition of Cell Proliferation HPAC TC1 (HPAC cells; Hydrochloride): C (C = >50 to ≤75)
N#Cc1c(OCC23CCCN2CCC3)nc(N2[C@@H]3CC[C@H]2CNC3)c2c1CN(c1cccc3cccc(Br)c13)CC2 [Ex 7, 1-((1R,5S)-3,8-diazabicyclo[3.2.1]octan-8-yl)-6-(8-bromonaphthalen-1-yl)-3-((tetrahydro-1H-pyrrolizin-7a(5H)-yl)methoxy)-5,6,7,8-tetrahydro-2,6-naphthyridine-4-carbonitrile TFA salt]	–	–	75 to 100	75 to 100	–
CC(C)[C@@H](N)C(=O)N1CCN(c2nc(OC[C@@H]3CCCN3C)c(C#N)c3c2CCN(Cc2ccccc2)C3)CC1 [Ex 21, 1-(4-(D-valyl)piperazin-1-yl)-6-benzyl-3-(((S)-1-methylpyrrolidin-2-yl)methoxy)-5,6,7,8-tetrahydro-2,6-naphthyridine-4-carbonitrile Hydrochloride]	–	–	≤ 25	≤ 25	–
N#Cc1c(OCC23CCCN2C[C@H](F)C3)nc(N2CC3CCC(C2)N3)c2c1CN(Cc1ccccc1)CC2 (stereo partly drawn) [Ex 19, 6-benzyl-1-(3,8-diazabicyclo[3.2.1]octan-3-yl)-3-(((2R)-2-fluorotetrahydro-1H-pyrrolizin-7a(5H)-yl)methoxy)-5,6,7,8-tetrahydro-2,6-naphthyridine-4-carbonitrile Hydrochloride]	25 to 50	50 to 75	≤ 25	75 to 100	IC50 (human KRAS G12D protein): > 1000 nM
N#Cc1c(OCC23CCCN2CCC3)nc(N2[C@@H]3CC[C@H]2CNC3)c2c1CN(c1cc(O)cc3cccc(Br)c13)CC2 [Ex 9, 1-((1R,5S)-3,8-diazabicyclo[3.2.1]octan-8-yl)-6-(8-bromo-3-hydroxynaphthalen-1-yl)-3-((tetrahydro-1H-pyrrolizin-7a(5H)-yl)methoxy)-5,6,7,8-tetrahydro-2,6-naphthyridine-4-carbonitrile Hydrochloride]	–	–	≤ 25	75 to 100	–
CN1CCC[C@H]1COc1nc(N2[C@@H]3CC[C@H]2CNC3)c2c(c1C#N)CN(c1cccc3cccc(Br)c13)CC2 [Ex 10, 1-((1R,5S)-3,8-diazabicyclo[3.2.1]octan-8-yl)-6-(8-bromonaphthalen-1-yl)-3-(((S)-1-methylpyrrolidin-2-yl)methoxy)-5,6,7,8-tetrahydro-2,6-naphthyridine-4-carbonitrile Hydrochloride]	–	–	75 to 100	75 to 100	–
C[C@@H](OCc1ccccc1)[C@H](N)C(=O)N1CCN(c2nc(OC[C@@H]3CCCN3C)c(C#N)c3c2CCN(Cc2ccccc2)C3)CC1 [Ex 23, 6-benzyl-1-(4-(O-benzyl-L-threonyl)piperazin-1-yl)-3-(((S)-1-methylpyrrolidin-2-yl)methoxy)-5,6,7,8-tetrahydro-2,6-naphthyridine-4-carbonitrile Hydrochloride]	–	–	≤ 25	50 to 75	–
C[C@H]1CNCCN1c1nc(OCC2CCCN2C)c(C#N)c2c1CCN(Cc1ccccc1)C2 (stereo partly drawn) [Ex 75, 6-benzyl-1-((S)-2-methylpiperazin-1-yl)-3-((1-methylpyrrolidin-2-yl)methoxy)-5,6,7,8-tetrahydro-2,6-naphthyridine-4-carbonitrile hydrochloride]	≤ 25	≤ 25	≤ 25	≤ 25	–
CN1CCC[C@H]1COc1nc(N2CC3CCC(C2)N3)c2c(c1C#N)CN(c1cc(O)cc3ccccc13)CC2 [Ex 1, 1-(3,8-diazabicyclo[3.2.1]octan-3-yl)-6-(3-hydroxynaphthalen-1-yl)-3-(((S)-1-methylpyrrolidin-2-yl)methoxy)-5,6,7,8-tetrahydro-2,6-naphthyridine-4-carbonitrile, hydrochloride]	25 to 50	75 to 100	–	–	–
CN1CCC[C@H]1COc1nc(N2[C@@H]3CC[C@H]2CNC3)c2c(c1C#N)CN(c1cc(O)cc3ccccc13)CC2 [Ex 5, 1-((1R,5S)-3,8-diazabicyclo[3.2.1]octan-8-yl)-6-(3-hydroxynaphthalen-1-yl)-3-(((S)-1-methylpyrrolidin-2-yl)methoxy)-5,6,7,8-tetrahydro-2,6-naphthyridine-4-carbonitrile Hydrochloride]	25 to 50	75 to 100	–	–	–
CC(C)[C@@H](NC(=O)OC(C)(C)C)C(=O)N1CCN(c2nc(OC[C@@H]3CCCN3C)c(C#N)c3c2CCN(Cc2ccccc2)C3)CC1 [Ex 20, tert-butyl ((R)-1-(4-(6-benzyl-4-cyano-3-(((S)-1-methylpyrrolidin-2-yl)methoxy)-5,6,7,8-tetrahydro-2,6-naphthyridin-1-yl)piperazin-1-yl)-3-methyl-1-oxobutan-2-yl)carbamate]	–	–	≤ 25	25 to 50	–
C#Cc1cccc2cccc(N3CCc4c(N5[C@@H]6CC[C@H]5CNC6)nc(OCC56CCCN5CCC6)c(C#N)c4C3)c12 [Ex 8, 1-((1R,5S)-3,8-diazabicyclo[3.2.1]octan-8-yl)-6-(8-ethynylnaphthalen-1-yl)-3-((tetrahydro-1H-pyrrolizin-7a(5H)-yl)methoxy)-5,6,7,8-tetrahydro-2,6-naphthyridine-4-carbonitrile TFA Salt]	–	–	–	50 to 75	% Inhibition of Cell Proliferation HPAC TC1 (HPAC cells; TFA Salt): A (A = ≤25%)
CN1CCC[C@H]1COc1nc(N2[C@@H]3CC[C@H]2CNC3)c2c(c1C#N)CN(c1cc(O)cc3cccc(Br)c13)CC2 [Ex 15, 1-((1R,5S)-3,8-diazabicyclo[3.2.1]octan-8-yl)-6-(8-bromo-3-hydroxynaphthalen-1-yl)-3-(((S)-1-methylpyrrolidin-2-yl)methoxy)-5,6,7,8-tetrahydro-2,6-naphthyridine-4-carbonitrile Hydrochloride]	–	–	≤ 25	75 to 100	–
C#Cc1cccc2cc(O)cc(N3CCc4c(N5[C@@H]6CC[C@H]5CNC6)nc(OCC56CCCN5CCC6)c(C#N)c4C3)c12 [Ex 14, 1-((1R,5S)-3,8-diazabicyclo[3.2.1]octan-8-yl)-6-(8-ethynyl-3-hydroxynaphthalen-1-yl)-3-((tetrahydro-1H-pyrrolizin-7a(5H)-yl)methoxy)-5,6,7,8-tetrahydro-2,6-naphthyridine-4-carbonitrile Hydrochloride]	–	–	≤ 25	50 to 75	–
CN1CCC[C@H]1COc1nc(N2CCNC(CC#N)C2)c2c(c1C#N)CN(c1cccc3cccc(Cl)c13)CC2 (stereo partly drawn) [Ex 3, 6-(8-chloronaphthalen-1-yl)-1-(3-(cyanomethyl)piperazin-1-yl)-3-(((S)-1-methylpyrrolidin-2-yl)methoxy)-5,6,7,8-tetrahydro-2,6-naphthyridine-4-carbonitrile hydrochloride]	25 to 50	75 to 100	–	–	–
